Assay results as given in patent US10968217B2, “Tetrahydropyridopyrimidines for the treatment and prophylaxis of hepatitis B virus infection” (Hoffmann-La Roche Inc., priority 2016, dated 2021).

System: HBsAg
Assay: HBsAg assay (CLIA of secreted HBsAg in HepG2.2.15 culture supernatant)
Assay type: cell-based, HBV
Settings: Hepatitis B virus, HepG2.2.15, read-out: IC50 (HBsAg assay)
Protocol: HepG2.2.15 cells (Acs et al. Proc Natl Acad Sci USA, 84, (1987), 4641-4), a constitutively HBV-expressing cell line were cultured in DMEM+Glutamax-I medium (Invitrogen, Carlsbad, Calif., USA), supplemented with 10% fetal bovine serum (Invitrogen) and G418 (Invitrogen) at a final concentration of 200 mg/L and maintained in 5% CO2 at 37° C.
HepG2.2.15 cells were seeded in duplicate into white, 96-well plates at 1.5×10^4 cells/well. The cells were treated with a three-fold serial dilution series of the compounds in DMSO. The final DMSO concentration in all wells was 1% and DMSO was used as no drug control.
The HBsAg chemiluminescence immunoassay (CLIA) kit (Autobio Diagnostics Co., Zhengzhou, China, Catalog number: CL0310-2) was used to measure the levels of secreted HBV antigens semi-quantitatively. For the detection 50 μL/well culture supernatant was used and HBsAg was quantified using HBsAg chemiluminescence immunoassay (CLIA) kit (Autobio Diagnostics Co., Zhengzhou, China, Catalog number: CL0310-2), 50 μL of the supernatant was transferred to the CLIA assay plate and 50 μL of enzyme conjugate reagent was added into each well. The plates were sealed and gently agitated for 1 hour at room temperature. The supernatant-enzyme-mixture was discarded and wells were washed 6 times with 300 μL of PBS. The residual liquid was removed by plating the CLIA plate right side down on absorbent tissue paper. 25 μL of substrates A and B were added to each well. Luminance was measured using a luminometer (Mithras LB 940 Multimode Microplate Reader) after 10 minutes incubation. Dose-response curves were generated and the IC50 value was extrapolated by using the E-WorkBook Suite (ID Business Solutions Ltd., Guildford, UK). The IC50 was defined as the compound concentration at which HBsAg secretion was reduced by 50% compared to the no drug control.

Row | Structure (SMILES) | IC50
1 | COc1ccc(C(=O)N2CCc3nc(-c4ccccn4)ncc3C2C)cc1OC (single isomer, unassigned; (-)) [Example 34, (−)-(3,4-Dimethoxyphenyl)-[5-methyl-2-(2-pyridyl)-7,8-dihydro-5H-pyrido[4,3-d]pyrimidin-6-yl]methanone] | 1.81 µM
2 | CCC1c2cnc(-c3ccccn3)nc2CCN1C(=O)c1ccc(OC)c(OC)c1 (single isomer, unassigned; (-)) [Example 35, (−)-(3,4-Dimethoxyphenyl)-[5-ethyl-2-(2-pyridyl)-7,8-dihydro-5H-pyrido[4,3-d]pyrimidin-6-yl]methanone] | 2.72 µM
3 | O=C(c1ccc(C(F)(F)F)cc1)N1CCc2nc(-c3ccccn3)ncc2C1 [Example 1, [2-(2-Pyridyl)-7,8-dihydro-5H-pyrido[4,3-d]pyrimidin-6-yl]-[4-(trifluoromethyl)phenyl]methanone] | 15.7 µM
4 | N#Cc1ccc(C(=O)N2CCc3nc(-c4ccccn4)ncc3C2)cc1 [Example 2, 4-[2-(2-Pyridyl)-7,8-dihydro-5H-pyrido[4,3-d]pyrimidine-6-carbonyl]benzonitrile] | 17 µM
5 | O=C(c1ccc([N+](=O)[O-])cc1)N1CCc2nc(-c3ccccn3)ncc2C1 [Example 3, (4-Nitrophenyl)-[2-(2-pyridyl)-7,8-dihydro-5H-pyrido[4,3-d]pyrimidin-6-yl]methanone] | 27.3 µM
6 | O=C(c1ccccc1)N1CCc2nc(-c3ccccn3)ncc2C1 [Example 4, Phenyl-[2-(2-pyridyl)-7,8-dihydro-5H-pyrido[4,3-d]pyrimidin-6-yl]methanone] | 24.3 µM
7 | O=C(c1ccc(Cl)cc1)N1CCc2nc(-c3ccccn3)ncc2C1 [Example 5, (4-Chlorophenyl)-[2-(2-pyridyl)-7,8-dihydro-5H-pyrido[4,3-d]pyrimidin-6-yl]methanone] | 11.4 µM
8 | O=C(c1cccc(C(F)(F)F)c1)N1CCc2nc(-c3ccccn3)ncc2C1 [Example 6, [2-(2-Pyridyl)-7,8-dihydro-5H-pyrido[4,3-d]pyrimidin-6-yl]-[3-(trifluoromethyl)phenyl]methanone] | 18.7 µM
9 | COc1ccc(C(=O)N2CCc3nc(-c4ccccn4)ncc3C2)cc1F [Example 7, (3-Fluoro-4-methoxy-phenyl)-[2-(2-pyridyl)-7,8-dihydro-5H-pyrido[4,3-d]pyrimidin-6-yl]methanone] | 4.86 µM
10 | O=C(c1ccc(F)cc1)N1CCc2nc(-c3ccccn3)ncc2C1 [Example 8, (4-Fluorophenyl)-[2-(2-pyridyl)-7,8-dihydro-5H-pyrido[4,3-d]pyrimidin-6-yl]methanone] | 16.4 µM
11 | COc1cc(C(=O)N2CCc3nc(-c4ccccn4)ncc3C2)ccc1F [Example 9, (4-Fluoro-3-methoxy-phenyl)-[2-(2-pyridyl)-7,8-dihydro-5H-pyrido[4,3-d]pyrimidin-6-yl]methanone] | 11.5 µM
12 | O=C(c1ccc(F)c(F)c1)N1CCc2nc(-c3ccccn3)ncc2C1 [Example 10, (3,4-Difluorophenyl)-[2-(2-pyridyl)-7,8-dihydro-5H-pyrido[4,3-d]pyrimidin-6-yl]methanone] | 26.2 µM
13 | O=C(c1ccc(F)c(O)c1)N1CCc2nc(-c3ccccn3)ncc2C1 [Example 11, (4-Fluoro-3-hydroxy-phenyl)-[2-(2-pyridyl)-7,8-dihydro-5H-pyrido[4,3-d]pyrimidin-6-yl]methanone] | 21 µM
14 | O=C(c1ccc(O)c(F)c1)N1CCc2nc(-c3ccccn3)ncc2C1 [Example 12, (3-Fluoro-4-hydroxy-phenyl)-[2-(2-pyridyl)-7,8-dihydro-5H-pyrido[4,3-d]pyrimidin-6-yl]methanone] | 21.4 µM
15 | CCOc1ccc(C(=O)N2CCc3nc(-c4ccccn4)ncc3C2)cc1F [Example 13, (4-Ethoxy-3-fluoro-phenyl)-[2-(2-pyridyl)-7,8-dihydro-5H-pyrido[4,3-d]pyrimidin-6-yl]methanone] | 6.56 µM
16 | COCCOc1ccc(C(=O)N2CCc3nc(-c4ccccn4)ncc3C2)cc1F [Example 14, [3-Fluoro-4-(2-methoxyethoxy)phenyl]-[2-(2-pyridyl)-7,8-dihydro-5H-pyrido[4,3-d]pyrimidin-6-yl]methanone] | 20 µM
17 | COCCCOc1ccc(C(=O)N2CCc3nc(-c4ccccn4)ncc3C2)cc1F [Example 15, [3-Fluoro-4-(3-methoxypropoxy)phenyl]-[2-(2-pyridyl)-7,8-dihydro-5H-pyrido[4,3-d]pyrimidin-6-yl]methanone] | 4.89 µM
18 | COc1cc(C(=O)N2CCc3nc(-c4ccccn4)ncc3C2)cc(OC)c1OC [Example 16, [2-(2-Pyridyl)-7,8-dihydro-5H-pyrido[4,3-d]pyrimidin-6-yl]-(3,4,5-trimethoxyphenyl)methanone] | 8.23 µM
19 | CCOc1cc(OCC)cc(C(=O)N2CCc3nc(-c4ccccn4)ncc3C2)c1 [Example 17, (3,5-Diethoxyphenyl)-[2-(2-pyridyl)-7,8-dihydro-5H-pyrido[4,3-d]pyrimidin-6-yl]methanone] | 7.66 µM
20 | COc1cc(Cl)cc(C(=O)N2CCc3nc(-c4ccccn4)ncc3C2)c1 [Example 18, (3-Chloro-5-methoxy-phenyl)-[2-(2-pyridyl)-7,8-dihydro-5H-pyrido[4,3-d]pyrimidin-6-yl]methanone] | 10 µM
21 | COc1cc(OC)cc(C(=O)N2CCc3nc(-c4ccccn4)ncc3C2)c1 [Example 19, (3,5-Dimethoxyphenyl)-[2-(2-pyridyl)-7,8-dihydro-5H-pyrido[4,3-d]pyrimidin-6-yl]methanone] | 8.99 µM
22 | Cc1cc(C(=O)N2CCc3nc(-c4ccccn4)ncc3C2)ccc1F [Example 20, (4-Fluoro-3-methyl-phenyl)-[2-(2-pyridyl)-7,8-dihydro-5H-pyrido[4,3-d]pyrimidin-6-yl]methanone] | 7.85 µM
23 | COc1ccc(C(=O)N2CCc3nc(-c4ccccn4)ncc3C2)cc1Cl [Example 21, (3-Chloro-4-methoxy-phenyl)-[2-(2-pyridyl)-7,8-dihydro-5H-pyrido[4,3-d]pyrimidin-6-yl]methanone] | 5.07 µM
24 | COc1ccc(C(=O)N2CCc3nc(-c4ccccn4)ncc3C2)cc1OC [Example 22, (3,4-Dimethoxyphenyl)-[2-(2-pyridyl)-7,8-dihydro-5H-pyrido[4,3-d]pyrimidin-6-yl]methanone] | 28 µM
25 | O=C(c1ccc(O)c(Cl)c1)N1CCc2nc(-c3ccccn3)ncc2C1 [Example 23, (3-chloro-4-hydroxy-phenyl)-[2-(2-pyridyl)-7,8-dihydro-5H-pyrido[4,3-d]pyrimidin-6-yl]methanone] | 21.2 µM
26 | COCCCOc1ccc(C(=O)N2CCc3nc(-c4ccccn4)ncc3C2)cc1Cl [Example 24, [3-Chloro-4-(3-methoxypropoxy)phenyl]-[2-(2-pyridyl)-7,8-dihydro-5H-pyrido[4,3-d]pyrimidin-6-yl]methanone] | 3.18 µM
27 | COc1cc(C(=O)N2CCc3nc(-c4ccccn4)ncc3C2)ccc1O [Example 25, (4-Hydroxy-3-methoxy-phenyl)-[2-(2-pyridyl)-7,8-dihydro-5H-pyrido[4,3-d]pyrimidin-6-yl]methanone] | 34.3 µM
28 | COCCCOc1ccc(C(=O)N2CCc3nc(-c4ccccn4)ncc3C2)cc1OC [Example 26, [3-Methoxy-4-(3-methoxypropoxy)phenyl]-[2-(2-pyridyl)-7,8-dihydro-5H-pyrido[4,3-d]pyrimidin-6-yl]methanone] | 3.18 µM
